Experimental findings from patent US20190031618A1, “BENZIMIDAZOLE DERIVATIVES USEFUL AS CB-1 INVERSE AGONISTS” (Janssen Pharmaceutica NV, priority 2015, published 2019) are described below.

What is called EC50 is the concentration at which the effect is half-maximal.

Molecules are shown by their SMILES.

Test [1] deals with Human CB1R (Cannabinoid receptor 1) (Homo sapiens, UniProt P21554). The test is described as follows: CB-1 in vitro cAMP (HTRF) assay. The class given is cell-based. The conditions noted are these: HEK cells, cAMP HTRF, 250 nM forskolin; mean where tested more than once; read-out: CB1 HEK_cAMP EC50. The text has this:
(§1) CB1 and CB2 receptors are Gi-coupled GPCR. Activation of CB1 and CB2 receptors results in a decrease in cAMP production. An inverse agonist of the CB1 or CB2 receptor results in the opposite effect, an increase of cAMP production. The principle of this assay is based on HTRF® technology (Homogeneous Time-Resolved Fluorescence). The method is a competitive immunoassay between native cAMP produced by cells and the cAMP labeled with the fluorophore d2. The tracer binding is quantified by a Mab anti-cAMP labeled with Eu3+TBP-NHS Cryptate (supplied as part of the assay kit). The specific signal (i.e. energy transfer) is inversely proportional to the concentration of cAMP in the standard or sample.
Human CB1R (Cannabinoid receptor 1) was stably transfected in HEK-293 cells (DiscoveRx, cat: 93-0200C1). Human CB2R (Cannabinoid receptor 2) was stably transfected in HEK-293 cells (DiscoveRx, cat: 93-0201C1).
One day prior to experiments media was warmed to 37° C. and the cryo-stored cells were thawed in a 37° C. water bath. The cells were then added to media (10× volume) and the mixture was centrifuged at 1000 RPM for 5 min. The supernate was removed and the cells were re-suspended in media. A sample of the cell suspension was evaluated on a Cedex XS automated cell counter (Innovatis Systems) to determine viable cells/ml. Additional media was added to the cells to achieve a final cell density of 4E5 cells/mL. […] Cells were removed from Row P (location of cAMP standards). […] The cell plates were lidded and stored for 15 minutes in a hood, then transferred to an incubator (37° C., 5% CO2, 95% humidity) overnight.
Test compounds (60 μL, 10 mM) were added to Column 1 and 13 (A1 through N1 and A13 through L13). Test compounds were serially diluted 1/3 by transferring and mixing 20 μl sample with 40 μL DMSO.
DMSO (40 μL) was added to wells of 384 well V bottom polystyrene plate: O2 through O11, M14 through M23, N14 through N23, and O14 through O23. […] The control was serially diluted 1/3 by transferring and mixing 20 μl sample with 40 μL DMSO. This process resulted 11 doses per control, 10 mM to 0.5 μM.
Cells plated the day prior to the assay in clear bottom plates were viewed on an inverse microscope to ensure confluency in the range of 60-75%.
A FLEXDROP (Perkin Elmer) was cleaned with ethanol then water, and primed with Buffer 2. A 384 well V bottom polypropylene plate containing d2 labelled cAMP and a second 384 well V bottom polypropylene plate containing anti-cAMP was prepared (50 μl per well). Media as “dumped” from the cell plate and 30 μL Buffer 1 was added to each well using a Multidrop. The content of the cell plate was again “dumped” and 10 μL Buffer 2 was added to each well using a Flexdrop. […] The cell plate was mixed (Speed 6, Lab-Line Instruments Titer Plate Shaker) and centrifuged (1000 RPMs, 1 min). […] The cell plate was again mixed (speed 6) and centrifuged (1000 RPMs, 1 min). The cell plate was incubated for 30 minutes at room temperature (˜27° C.). The contents of row P were removed and the cAMP standard dilutions were added in duplicate to Row P (P1-12 and P13-24). After incubation, 6 μL d2 labelled cAMP and 6 μL of Anti-cAMP were added to all wells of the cell plate using a BioMek FX (Beckman Coulter). The cell plate was again mixed (speed 6) and centrifuged (1000 RPMs, 1 min) and was incubated for 60 minutes in the dark at room Temp (˜27° C.).
After this final incubation, the cell plate was read in HTRF mode (fluorescence at 665 nm and 620 nm) on an Envision plate Reader (Perkin Elmer). The Envision reader outputs a ratio of channel 1/channel 2 fluorescence×10,000 (Normalized signal (NS)). Amount of cAMP in nM was calculated for each well (based on NS) from a cAMP standard curve located on each plate (at P1-12 and P13-24). EC50 values were determined from a 4-point fit (Hill equation) of a single 11-point compound dosing. Hill slope was fixed at 1.0.

For test [2], the target named is Human CB2R (Cannabinoid receptor 2) (Homo sapiens, UniProt P34972). The experiment in a line: CB-2 in vitro cAMP (HTRF) assay. The test is classed as cell-based. Conditions: HEK cells, cAMP HTRF, 250 nM forskolin; mean where tested more than once; read-out: CB2 HEK_cAMP EC50.
Chain of Human CB2R (Cannabinoid receptor 2) (P34972 whole entry): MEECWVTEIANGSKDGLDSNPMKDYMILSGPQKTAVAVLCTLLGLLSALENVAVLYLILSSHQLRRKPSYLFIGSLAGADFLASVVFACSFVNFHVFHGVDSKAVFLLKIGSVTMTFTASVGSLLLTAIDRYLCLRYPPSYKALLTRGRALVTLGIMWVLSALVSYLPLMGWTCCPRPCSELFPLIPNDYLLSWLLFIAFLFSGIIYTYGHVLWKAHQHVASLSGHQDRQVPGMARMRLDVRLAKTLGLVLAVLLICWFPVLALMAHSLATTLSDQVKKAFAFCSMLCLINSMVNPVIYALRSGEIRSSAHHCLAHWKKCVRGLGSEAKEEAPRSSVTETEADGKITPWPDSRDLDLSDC
Excerpt: as §1
Human CB1R (Cannabinoid receptor 1) was stably transfected in HEK-293 cells (DiscoveRx, cat: 93-0200C1). Human CB2R (Cannabinoid receptor 2) was stably transfected in HEK-293 cells (DiscoveRx, cat: 93-0201C1). Cell cultures were maintained in media: DMEM (Invitrogen Cat#12430-054) supplemented with 10% HI FBS (Invitrogen Cat#16140-071), 1% L-glutamine (Invitrogen Cat#25030-081), 0.2 mg/ml Hygromycin B (Invitrogen Cat#10687-010), 600 μg/mL G418 (Invitrogen Cat#10131-035), and 1× Penn/Strep (Invitrogen 15140-122). After cell expansion, aliquots were cryo-stored in media containing 5% DMSO (Pierce Cat#20684).
One day prior to experiments media was warmed to 37° C. and the cryo-stored cells were thawed in a 37° C. water bath. The cells were then added to media (10× volume) and the mixture was centrifuged at 1000 RPM for 5 min. The supernate was removed and the cells were re-suspended in media. A sample of the cell suspension was evaluated on a Cedex XS automated cell counter (Innovatis Systems) to determine viable cells/ml. Additional media was added to the cells to achieve a final cell density of 4E5 cells/mL. The cells were then plated into 384 well PDL white solid bottom plates (Greiner, Cat#781945) at 20 μL per well using a Multidrop (Thermo Scientific). Cells were removed from Row P (location of cAMP standards). Two columns of cells were plated into a clear bottom 384 well PDL coated plate (Greiner, Cat#781944) to view confluence the day of the assay. The cell plates were lidded and stored for 15 minutes in a hood, then transferred to an incubator (37° C., 5% CO2, 95% humidity) overnight.
DMSO was added to all wells of 384 well V bottom polystyrene plate (Greiner, Cat#781280) except to columns 1 and 13, rows O and P and wells M13-M23 and N13-N23. Test compounds (60 μL, 10 mM) were added to Column 1 and 13 (A1 through N1 and A13 through L13). Test compounds were serially diluted 1/3 by transferring and mixing 20 μl sample with 40 μL DMSO.
DMSO (40 μL) was added to wells of 384 well V bottom polystyrene plate: O2 through O11, M14 through M23, N14 through N23, and O14 through O23. AM630 (also known as [6-iodo-2-methyl-1-[2-(4-morpholinyl)ethyl]-1H-indol-3-yl](4-methoxyphenyl)-methanone, Cayman Chemical, Cat#10006974) (60 μL, 10 mM) was added to O1; and 1-(2,4-dichlorophenyl)-7-[(4-fluorophenyl)methylene]-4,5,6,7-tetrahydro-N-1-piperidinyl-1H-benzimidazole-3-carboxamide (60 μL, 10 mM) was added to N13. The control was serially diluted 1/3 by transferring and mixing 20 μl sample with 40 μL DMSO. This process resulted 11 doses per control, 10 mM to […].
Cells plated the day prior to the assay in clear bottom plates were viewed on an inverse microscope to ensure confluency in the range of 60-75%. […]

Chain of Human CB1R (Cannabinoid receptor 1) (P21554 whole entry): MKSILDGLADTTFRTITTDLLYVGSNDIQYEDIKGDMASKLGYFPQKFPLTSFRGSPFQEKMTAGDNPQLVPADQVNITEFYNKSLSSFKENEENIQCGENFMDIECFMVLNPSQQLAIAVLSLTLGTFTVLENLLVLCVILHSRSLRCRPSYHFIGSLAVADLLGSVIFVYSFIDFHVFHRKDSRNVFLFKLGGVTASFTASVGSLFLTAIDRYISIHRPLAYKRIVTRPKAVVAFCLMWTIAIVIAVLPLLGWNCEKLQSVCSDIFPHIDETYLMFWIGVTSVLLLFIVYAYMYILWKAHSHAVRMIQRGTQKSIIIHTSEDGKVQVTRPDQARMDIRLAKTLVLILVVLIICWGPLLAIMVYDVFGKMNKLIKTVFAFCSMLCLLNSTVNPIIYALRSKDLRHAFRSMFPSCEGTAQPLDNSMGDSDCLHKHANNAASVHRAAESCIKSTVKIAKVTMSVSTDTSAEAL

Regarding `O=S(=O)(N1CCC(n2c(C3CCC3)nc3ccc(C(c4ccc(Cl)cc4)c4nccs4)cc32)CC1)C(F)(F)F` (centres unmarked) [Example 391], the EC50 in test [1] was 60 nM; in test [2], over 10000 nM.

For the molecule `Clc1ccc(C(c2ccc3nc(-c4ccoc4)n(-c4cccc(Cl)c4)c3c2)c2nccs2)cc1` (centres unmarked) [Example 376], the EC50 in test [1] came out at 441 nM; in test [2] it was 272 nM.

With `C=C(CO)c1nc2ccc(C(c3ccc(Cl)cc3)c3ccc(Cl)cc3)cc2n1C1CCN(S(=O)(=O)C(F)(F)F)CC1` [Example 118], the concentration giving a half-maximal response (EC50) was 98 nM in test [1] and over 10000 nM in test [2].

For the molecule `O=C(O)c1cccc(-c2ccc(CCn3c(C4CC4)nc4ccc(C(c5ccc(Cl)cc5)c5ccc(Cl)cc5)cc43)cc2)c1` [Example 24], the figures for the EC50 in test [1] and in test [2] were 1940 nM and 7300 nM, respectively.

`O=C(CO)N1CCC(n2c(C3CC3)nc3ccc(C(c4ccc(Cl)cc4)c4ccc(Cl)cc4)cc32)CC1` [Example 240]: the EC50 in test [1] came out at 14.9 nM; in test [2], 2100 nM.

Take `Clc1ccc(C(c2ccc3nc(C4CC4)n(C4Cc5ccccc5C4)c3c2)c2nccs2)cc1` (centres unmarked) [Example 362]: the EC50 was 212 nM in test [1] and over 10000 nM in test [2].

As for `O=C(O)c1cccc(OCCN2CCC(n3c(C4CC4)nc4ccc(C(c5ccc(Cl)cc5)c5ccc(Cl)cc5)cc43)CC2)c1` [Example 44], the concentration giving a half-maximal response (EC50) in test [1] was determined as 14.6 nM; in test [2], 2440 nM.

As for `CCc1nc2ccc(C(c3ccc(Cl)cc3)c3ccc(Cl)cc3)cc2n1C1Cc2ccccc2C1` [Example 297], the figures for the EC50 in test [1] and in test [2] were 615 nM and over 10000 nM, respectively.

In the case of `CCCc1nc2ccc(C(c3ccc(Cl)cc3)c3nccs3)cc2n1CCc1cccc(Cl)c1` (centres unmarked) [Example 410], the EC50 in test [1] was 308 nM; in test [2], over 10000 nM.

On to `CCNC(=O)N1CCC(n2c(C3CC3)nc3ccc(C(c4ccc(Cl)cc4)c4ccc(Cl)cc4)cc32)CC1` [Example 73], for which the EC50 is 18.5 nM in test [1] and 5250 nM in test [2].

Regarding `O=C(O)c1cc(S(=O)(=O)N2CCC(n3c(C4CC4)nc4ccc(C(c5ccc(Cl)cc5)c5ccc(Cl)cc5)cc43)CC2)ccc1F` [Example 226], the EC50 in test [1] came out at 16.7 nM; in test [2], 7820 nM.

In the case of `CCOC(=O)c1nc2ccc(C(c3ccc(Cl)cc3)c3nccs3)cc2n1-c1cccc(Cl)c1` (centres unmarked) [Example 429], the half-maximal effective concentration (EC50) is 437 nM in test [1] and over 10000 nM in test [2].

`CS(=O)(=O)N1CCC(n2c(C3CC3)nc3ccc(C(c4ccc(Cl)cc4)c4ccc(Cl)cc4)cc32)CC1` [Example 270]: the values for the EC50 in test [1] and in test [2] were 6.6 nM and 9900 nM, respectively.

Turning to `O=C(O)c1ccc(CN2CCC(n3c(C4CC4)nc4ccc(C(c5ccc(Cl)cc5)c5ccc(Cl)cc5)cc43)CC2)cn1` [Example 106], the EC50 in test [1] is 60.1 nM; in test [2], over 10000 nM.

On to `NC(=O)c1ccc(CN2CCC(n3c(C4CC4)nc4ccc(C(c5ccc(Cl)cc5)c5ccc(Cl)cc5)cc43)CC2)s1` [Example 126], for which the EC50 was 4.2 nM in test [1] and 7800 nM in test [2].

Turning to `O=C(O)c1ccc(S(=O)(=O)N2CCC(n3c(C4CC4)nc4ccc(C(c5ccc(Cl)cc5)c5ccc(Cl)cc5)cc43)CC2)cc1F` [Example 190], the EC50 in test [1] worked out at 11.3 nM; in test [2], 699 nM.

Consider `O=S(=O)(N1CCC(Cn2c(C3CC3)nc3ccc(C(O)(c4ccc(Cl)cc4)c4ccc(Cl)cc4)cc32)CC1)C(F)(F)F` [Example 294], for which the figures for the EC50 in test [1] and in test [2] were 4.6 nM and over 10000 nM, respectively.

Turning to `COc1ccc(S(=O)(=O)N2CCC(n3c(C4CC4)nc4ccc(C(c5ccc(Cl)cc5)c5ccc(Cl)cc5)cc43)CC2)cc1C(=O)O` [Example 211], the EC50 came to 589 nM in test [1] and 10200 nM in test [2].

Consider `Clc1ccc(C(c2ccc(Cl)cc2)c2ccc3nc(C4CC4)n(CCc4ccc(Br)cc4)c3c2)cc1` [Example 27], for which the EC50 in test [1] is 11 nM; in test [2] it was over 10000 nM.

For the molecule `O=S(=O)(c1ccc(O)cc1)N1CCC(n2c(C3CC3)nc3ccc(C(c4ccc(Cl)cc4)c4ccc(Cl)cc4)cc32)CC1` [Example 257], the EC50 in test [1] is 5.4 nM; in test [2], over 10000 nM.

Turning to `O=S(=O)(N1CCC(Cn2cnc3ccc(C(c4ccc(Cl)cc4)c4nccs4)cc32)CC1)C(F)(F)F` (centres unmarked) [Example 322], the EC50 in test [1] was 621 nM; in test [2], over 10000 nM.

On to `CCOC(=O)N1CCC(n2c(C3CCCO3)nc3ccc(C(c4ccc(Cl)cc4)c4nccs4)cc32)CC1` (centres unmarked) [Example 411], for which the EC50 in test [1] is 376 nM; in test [2], over 10000 nM.

On to `NC(=O)COc1cccc(-n2c(C3CC3)nc3ccc(C(c4ccc(Cl)cc4)c4ccc(Cl)cc4)cc32)c1` [Example 172], for which the values for the EC50 in test [1] and in test [2] were 81.2 nM and over 10000 nM, respectively.

For the molecule `O=S(=O)(c1ccc(CO)o1)N1CCC(n2c(C3CC3)nc3ccc(C(c4ccc(Cl)cc4)c4ccc(Cl)cc4)cc32)CC1` [Example 55], the EC50 turned out to be 12.3 nM in test [1] and 2740 nM in test [2].

Turning to `Oc1cccc(CN2CCC(n3c(C4CC4)nc4ccc(C(c5ccc(Cl)cc5)c5ccc(Cl)cc5)cc43)CC2)c1` [Example 90], the EC50 in test [1] was 22.4 nM; in test [2], over 10000 nM.
